For assay [1], the system named is HeLa cells. The experiment in a line: [3H] Adenosine uptake assay. It is filed as cell-based. The conditions noted are these: Homo sapiens, HeLa, accumulation of tritiated adenosine into HeLa cells; compound concentration range 10 μM to 0.032 nM; read-out: ADU inhibition IC50 (adenosine uptake inhibition potency). The method, boiled down:
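Accumulation of tritiated adenosine in adherent HeLa cells, detected by scintillant-plate coincidence counting, gives IC50 via 4-parameter robust fit. Compound (constant 0.25% DMSO) applied 30 min ahead, then 60 min radiolabel exposure (added from 500 nM solution), ambient conditions, HBSS with 5% FBS.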

The target in assay [2] is BTK enzyme (recombinant full-length BTK, hBTK) (Homo sapiens (Human), UniProt Q06187). Description: Btk enzyme activity assay, LANCE TR-FRET. It is filed as biochemical. The conditions noted are these: 50 pM hBTK, 2 μM biotin-A5-peptide, 25 μM ATP; 60 minute compound & enzyme incubation; read-out: BTK binding IC50. The procedure: Btk Enzyme Activity Assay Methods
BTK enzymatic activity was determined with the LANCE (Lanthanide Chelate Excite) TR-FRET (Time-resolved fluorescence resonance energy transfer) assay. […] After 60 minutes incubation with detection reagents, reaction plates were read on a PerkinElmer EnVision plate reader using standard TR-FRET protocol.
On the technique in general: TR-FRET usually uses a lanthanide donor and a delayed reading to cut background.

Consider 20 molecules from patent publication US10087188B2, “Benzamide imidazopyrazine Btk inhibitors” (MERCK SHARP & DOHME CORP., priority 2014, dated 2018).

As a reminder, the pIC50 is the negative decadic logarithm of the IC50, by convention in mol/L.

The structures appear in SMILES notation. pIC50: −log10 of the molar value.

Sequence of BTK enzyme (recombinant full-length BTK, hBTK) (Q06187 whole entry): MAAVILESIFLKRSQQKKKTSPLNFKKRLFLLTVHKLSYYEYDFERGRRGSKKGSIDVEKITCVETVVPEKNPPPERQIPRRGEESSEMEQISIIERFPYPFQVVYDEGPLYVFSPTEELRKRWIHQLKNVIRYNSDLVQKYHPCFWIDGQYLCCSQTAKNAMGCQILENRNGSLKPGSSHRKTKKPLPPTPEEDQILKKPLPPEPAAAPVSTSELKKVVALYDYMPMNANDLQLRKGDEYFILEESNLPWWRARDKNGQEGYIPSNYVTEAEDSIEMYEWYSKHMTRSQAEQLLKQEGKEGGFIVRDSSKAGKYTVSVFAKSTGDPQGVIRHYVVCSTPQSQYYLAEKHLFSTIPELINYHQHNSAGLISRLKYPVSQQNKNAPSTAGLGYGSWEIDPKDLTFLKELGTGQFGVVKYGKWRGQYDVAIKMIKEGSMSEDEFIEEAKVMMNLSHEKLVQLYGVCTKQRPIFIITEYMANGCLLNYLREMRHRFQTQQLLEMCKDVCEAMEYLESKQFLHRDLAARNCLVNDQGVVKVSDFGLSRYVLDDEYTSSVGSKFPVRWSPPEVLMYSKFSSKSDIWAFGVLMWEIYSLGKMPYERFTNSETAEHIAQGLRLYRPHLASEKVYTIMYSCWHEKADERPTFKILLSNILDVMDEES

With `Nc1nccn2c([C@@H]3CC[C@H](C(=O)NC4(C(=O)O)CC4)C3)nc(-c3ccc(C(=O)Nc4cc(C(F)(F)F)ccn4)cc3)c12` [Example 16, 1-[({(1S,3R)-3-[8-amino-1-(4-{[4-(trifluoromethyl)pyridin-2-yl]carbamoyl}phenyl)imidazo[1,5-a]pyrazin-3-yl]cyclopentyl}carbonyl)amino] cyclopropane-carboxylic acid], the negative-log IC50 (pIC50) is 5.32 in assay [1] and 8.68 in assay [2].
In the same order, the values of `CC1(C)[C@H](C(=O)O)CC[C@]1(C)c1nc(-c2ccc(C(=O)Nc3cc(C(F)(F)F)ccn3)cc2)c2c(N)nccn12` [Example 141, (1R,3S)-3-[8-amino-1-(4-{[4-(trifluoromethyl)pyridin-2-yl]carbamoyl}phenyl)imidazo[1,5-a]pyrazin-3-yl]-2,2,3-trimethylcyclopentane carboxylic acid] are 5.53 and 8.28.
For `CCOc1cc(C(=O)Nc2cc(C(F)(F)F)ccn2)ccc1-c1nc(C23CCC(C(=O)O)(CC2(F)F)C(F)(F)C3)n2ccnc(N)c12` (stereo not shown) [Example 66, 4-[8-amino-1-(2-ethoxy-4-{[4-(trifluoromethyl)pyridin-2-yl]carbamoyl}phenyl)imidazo[1,5-a]pyrazin-3-yl]-2,2,5,5-tetrafluorobicyclo [2.2.2]octane-1-carboxylic acid], the pIC50 in assay [1] is 5.00; in assay [2], 9.33.
In the same order, the values of `CCOc1cc(C(=O)Nc2cc(C(F)(F)F)n(C)n2)ccc1-c1nc([C@H]2CC[C@@](C(=O)O)(C(C)C)C2)n2ccnc(N)c12` [Example 53, (1S,3S)-3-[8-amino-1-(2-ethoxy-4-{[1-methyl-5-(trifluoromethyl)-1H-pyrazol-3-yl]carbamoyl}phenyl)imidazo[1,5-a]pyrazin-3-yl]-1-(1-methylethyl) cyclopentane-carboxylic acid] are 5.00 and 9.06.
With `Nc1nccn2c([C@H]3CC[C@@H](C(=O)N4CC[C@@H](C(=O)O)C4)C3)nc(-c3ccc(C(=O)Nc4cc(C(F)(F)F)ccn4)cc3)c12` [Example 19, (3R)-1-({(1R,3S)-3-[8-amino-1-(4-{[4-(trifluoromethyl)pyridin-2-yl]carbamoyl}phenyl)imidazo[1,5-a]pyrazin-3-yl]cyclopentyl}carbonyl)pyrrolidine-3-carboxylic acid], the pIC50 is 5.54 in assay [1] and 9.21 in assay [2].
On the same counts, the results for `CCOc1cc(C(=O)Nc2cc(C(F)(F)F)ccn2)c(F)cc1-c1nc([C@@]2(C)CC[C@](C)(C(=O)O)C2)n2ccnc(N)c12` [Example 128, (1S,3S)-3-[8-amino-1-(2-ethoxy-5-fluoro-4-{[4-(trifluoromethyl)pyridin-2-yl]carbamoyl}phenyl)imidazo[1,5-a]pyrazin-3-yl]-1,3-dimethylcyclopentane carboxylic acid] are 5.03 and 8.80.
On the same counts, the results for `Nc1nccn2c(N3CC[C@H](C(=O)O)C3)nc(-c3ccc(C(=O)Nc4cc(C(F)(F)F)ccn4)cc3)c12` [Example 39, (3S)-1-[8-amino-1-(4-{[4-(trifluoromethyl)pyridin-2-yl]carbamoyl}phenyl)imidazo[1,5-a]pyrazin-3-yl]pyrrolidine-3-carboxylic acid] are 5.00 and 9.04.
In the same order, the values of `CCOc1cc(C(=O)Nc2cc(C(F)(F)F)ccn2)c(F)cc1-c1nc([C@@H]2CC[C@](C)(C(=O)O)C2(C)C)n2ccnc(N)c12` [Example 114, (1S,3R)-3-[8-amino-1-(2-ethoxy-5-fluoro-4-{[4-(trifluoromethyl)pyridin-2-yl]carbamoyl}phenyl)imidazo[1,5-a]pyrazin-3-yl]-1,2,2-trimethylcyclopentane carboxylic acid] are 5.56 and 9.04.
Turning to `CCOc1cc(C(=O)Nc2cc(C(F)(F)F)ccn2)ccc1-c1nc([C@@H]2CC[C@](C(=O)O)(C(C)C)C2)n2ccnc(N)c12` [Example 61, (1R,3R)-3-[8-amino-1-(2-ethoxy-4-{[4-(trifluoromethyl)pyridin-2-yl]carbamoyl}phenyl)imidazo[1,5-a]pyrazin-3-yl]-1-(1-methylethyl) cyclopentane-carboxylic acid], the pIC50 is 5.00 in assay [1] and 8.62 in assay [2].
In the same order, the values of `CC1(C(=O)O)CCC(C)(c2nc(-c3ccc(C(=O)Nc4cc(C(F)(F)F)ccn4)cc3)c3c(N)nccn23)C1` (stereo not shown) [Example 21, 3-(8-amino-1-(4-((4-(trifluoromethyl)pyridin-2-yl)carbamoyl)phenyl)imidazo[1,5-a]pyrazin-3-yl)-1,3-dimethylcyclopentanecarboxylic acid] are 5.77 and 9.57.
On the same counts, the results for `CCOc1cc(C(=O)Nc2cc(C(F)(F)F)ccn2)ccc1-c1nc([C@@H]2CCC[C@@](C(=O)O)(C(C)C)C2)n2ccnc(N)c12` [Example 88, (1S,3R)-3-[8-amino-1-(2-ethoxy-4-{[4-(trifluoromethyl)pyridin-2-yl]carbamoyl}phenyl)imidazo[1,5-a]pyrazin-3-yl]-1-(1-methylethyl) cyclohexane-carboxylic acid] are 5.43 and 7.41.
On the same counts, the results for `Nc1nccn2c([C@H]3CN(C4CC(C(=O)O)C4)CCO3)nc(-c3ccc(C(=O)Nc4cc(C(F)(F)F)ccn4)cc3)c12` (stereo partly drawn) [Example 179, 3-{(2R)-2-[8-amino-1-(4-{[4-(trifluoromethyl)pyridin-2-yl]carbamoyl}phenyl)imidazo [1,5-a]pyrazin-3-yl]morpholin-4-yl}cyclobutanecarboxylic acid] are 5.32 and 9.03.
For the molecule `CC1(C)[C@H](c2nc(-c3ccc(C(=O)Nc4cc(C(F)(F)F)ccn4)cc3Cl)c3c(N)nccn23)CC[C@]1(C)C(=O)O` [Example 129, (1S,3R)-3-[8-amino-1-(2-chloro-4-{[4-(trifluoromethyl)pyridin-2-yl]carbamoyl}phenyl)imidazo[1,5-a]pyrazin-3-yl]-1,2,2-trimethylcyclopentane carboxylic acid], the results for the pIC50 in assay [1] and in assay [2] were 5.28 and 9.23, respectively.
In the same order, the values of `Nc1nccn2c(C34CCC(C(=O)O)(CC3)CC4)nc(-c3ccc(C(=O)Nc4cc(C(F)(F)F)ccn4)cc3Cl)c12` [Example 151, 4-[8-amino-1-(2-chloro-4-{[4-(trifluoromethyl)pyridin-2-yl]carbamoyl}phenyl)imidazo[1,5-a]pyrazin-3-yl]bicyclo[2.2.2] octane-1-carboxylic acid] are 5.83 and 9.42.
On the same counts, the results for `C[C@H]1CO[C@@H](c2nc(-c3ccc(C(=O)Nc4cc(C(F)(F)F)ccn4)cc3F)c3c(N)nccn23)CN1[C@H]1CC[C@@](C)(C(=O)O)CC1` [Example 194, cis-4-{(2R,5S)-2-[8-amino-1-(2-fluoro-4-{[4-(trifluoromethyl)pyridin-2-yl]carbamoyl}phenyl)imidazo [1,5-a]pyrazin-3-yl]-5-methylmorpholin-4-yl}-1-methylcyclohexanecarboxylic acid] are 5.39 and 8.77.
On the same counts, the results for `CC(C)(C(=O)O)N1CCO[C@@H](c2nc(-c3ccc(C(=O)Nc4cc(C(F)(F)F)ccn4)cc3)c3c(N)nccn23)C1` [Example 183, 2-{(2R)-2-[8-amino-1-(4-{[4-(trifluoromethyl)pyridin-2-yl]carbamoyl}phenyl)imidazo [1,5-a]pyrazin-3-yl]morpholin-4-yl}-2-methylpropanoic acid] are 6.18 and 7.88.
Turning to `CCOc1cc(C(=O)Nc2cc(C(F)(F)F)ccn2)ccc1-c1nc([C@@H]2CC[C@](C)(C(=O)O)C2(C)C)n2ccnc(N)c12` [Example 84, (1S,3R)-3-[8-amino-1-(2-ethoxy-4-{[4-(trifluoromethyl)pyridin-2-yl]carbamoyl}phenyl)imidazo[1,5-a]pyrazin-3-yl]-1,2,2-trimethylcyclopentane carboxylic acid], the pIC50 in assay [1] was 5.13; in assay [2] it was 9.35.
Turning to `C[C@H]1CO[C@@H](c2nc(-c3ccc(C(=O)Nc4cc(C(F)(F)F)ccn4)cc3)c3c(N)nccn23)CN1C(=O)C12CC(C(=O)O)(C1)C2` [Example 175, 3-((2R,5S)-2-(8-amino-1-(4-((4-(trifluoromethyl)pyridin-2-yl)carbamoyl)phenyl)imidazo[1,5-a]pyrazin-3-yl)-5-methylmorpholine-4-carbonyl)bicyclo[1.1.1]pentane-1-carboxylic acid], the pIC50 in assay [1] is 5.00; in assay [2], 9.43.
In the same order, the values of `C[C@]1(C(=O)O)CC[C@@H](N2CCO[C@@H](c3nc(-c4ccc(C(=O)Nc5cc(C6CC6)ccn5)cc4F)c4c(N)nccn34)C2)CC1` [Example 198, cis-4-[(2R)-2-(8-amino-1-{4-[(4-cyclopropylpyridin-2-yl)carbamoyl]-2-fluorophenyl}imidazo[1,5-a]pyrazin-3-yl)morpholin-4-yl]-1-methylcyclohexanecarboxylic acid] are 5.69 and 7.98.
In the same order, the values of `CCOc1cc(C(=O)Nc2cc(C(F)(F)F)ccn2)ccc1-c1nc([C@H]2CC[C@](C(=O)O)(C(C)C)C2)n2c(Cl)cnc(N)c12` [Example 110, (1R,3S)-3-[8-amino-5-chloro-1-(2-ethoxy-4-{[4-(trifluoromethyl)pyridin-2-yl]carbamoyl}phenyl)imidazo[1,5-a]pyrazin-3-yl]-1-(1-methylethyl) cyclopentane-carboxylic acid] are 5.32 and 8.68.
